Format in all cases: cell-based
One test concerns the target T1, ZBTB7A (Homo sapiens, UniProt O95365+Q96SW2).
T1 construct: HUDEP-2 cells engineered to express a HiBiT tag in either the WIZ (Widely interspaced zinc finger) or ZBTB7A
Description: HUDEP-2 ZBTB7A HiBiT degradation assay. Conditions: HiBiT-tagged ZBTB7A degradation in HUDEP-2 cells, 24 hours of treatment; read-out: ZBTB7A EC50. On the procedure: (§1) WIZ Assay and ZBTB7A EC50 Assays. The HiBiT degradation assays for WIZ and ZBTB7A in HUDEP-2 cells were performed as described below. HUDEP-2 cells engineered to express a HiBiT tag in either the WIZ (Widely interspaced zinc finger) or ZBTB7A (Zinc Finger And BTB Domain Containing 7A) proteins were maintained in low attachment flasks in StemSpan SFEM II media supplemented with Penicillin-Streptomycin (50 U/mL), rhSCF (50 ng/mL), rhEPO (3 IU/mL), dexamethasone (0.4 μg/mL) and doxycycline (1 μg/mL). Prior to start of the assay, cell count and viability were measured by trypan blue exclusion using the Vi-cell XR cell viability analyzer.
For the HUDEP-2 ZBTB7A HiBiT assay, cell count and viability were measured by trypan blue exclusion using the Vi-cell XR cell viability analyzer and the cells were transferred to a 50 mL conical and centrifuged at 500 g for five minutes. Cells were resuspended in fresh IMDM media supplemented with L-Glutamine (1×), Penicillin-Streptomycin (50 U/mL), holo-transferrin (330 μg/mL), heparin (2 IU/mL), r-human Insulin (10 μg/mL), rhEPO (3 IU/mL), rhSCF (100 ng/mL)+Dox (1 μg/mL) and 5% human plasma in low attachment flasks, which were placed in a 37° C. incubator with 5% CO2. After 48 hours, cell count and viability were measured by trypan blue exclusion using the Vi-cell XR cell viability analyzer. The HUDEP-2 ZBTB7A cells were transferred to a 50 mL conical, centrifuged at 500 g for five minutes and resuspended at a density of 1.0×10^6 cells/ml in IMDM media supplemented with L-Glutamine (1×), Penicillin-Streptomycin (50 U/mL), holo-transferrin (330 μg/mL), heparin (2 IU/mL), r-human Insulin (10 μg/mL), rhEPO (3 IU/mL), rhSCF (100 ng/mL)+Dox (1 μg/mL) and 5% human plasma. Forty microliters of cell suspension was dispensed into 384-well Low Flange White Flat Bottom Polystyrene TC-treated Microplates containing pre-dispensed compounds, using a VIAFLO 384 liquid hander, and placed in a 37° C. incubator with 5% CO2. […] After 24 hours of treatment, 40 μL Nano-Glo HiBiT Lytic Detection System reagent was dispensed into each well using a VIAFLO 384 liquid hander. Plates were incubated for 25 minutes at room temperature and the luminescence was read as relative luminescent units using the EnVision plate reader. EC50 and Y-min values were calculated using curves calculated from dotmatics software after the normalization to the DMSO control of 10 different concentrations: 10, 3.33, 1.11, 0.37, 0.12, 0.04 0.0137, 0.0046, 0.0015 and […] respectively.
(With HiBiT, luminescence reflects the tagged protein that the partner subunit can reach.)

Another test has as its system HbF. Put plainly: HbF HiBiT induction assay in HUDEP-2 cells. To be noted: HUDEP-2 cells with HiBiT tag in HBG1/2, 72 hours of treatment; area under the dose response curve, higher AUC = greater HbF induction. Here is the method:
HbF HiBiT induction assay. The HiBiT induction assay for HbF in HUDEP-2 cells was performed as described below. HUDEP-2 cells engineered to express a HiBiT tag in HBG1/2 were maintained at a density of 0.1-1×10^6 cells/ml in StemSpan SFEM II supplemented with 1% penicillin/streptomycin, hSCF (50 ng/mL), erythropoietin (EPO; 3 IU/mL), dexamethasone (DEX; 0.4 μg/mL), and doxycycline hyclate (DOX; 1 μg/mL). The cells were cultured in low adherence flasks, in a humidified incubator, set at 37° C. with 5% CO2. Cell counts and viability were measured by trypan blue exclusion using the Vi-CELL XR cell viability analyzer and the cell growth was consistently maintained in log phase.
Prior to the start of experiments, HbF HiBiT-tagged HUDEP-2 cells were transferred to a 50 mL conical and centrifuged at 500×g for 5 minutes, the supernatant removed, and the pellet washed in 5 mL of 1×PBS. The washed cells were centrifuged again at 500×g for 5 minutes and resuspended in IMDM containing; 1×glutamine, 1×penicillin/streptomycin, holo-transferrin (330 μg/mL), heparin (2 IU/mL), r-human insulin (10 μg/mL), EPO (3 IU/mL), 5% human plasma, hSCF (100 ng/mL) and DOX (1 μg/mL) to a final density of 0.3×10^6 cells/mL. Forty microliters of cell suspension were dispensed into 384-well Low Flange White Flat Bottom Polystyrene TC-treated Microplates containing pre-dispensed compounds, using a VIAFLO 384 liquid hander, and placed in a humidified incubator at 37° C. with 5% CO2. […] After 72 hours of treatment, 40 μL of Nano-Glo HiBiT Lytic Solution (prepared according to manufacturer's instructions) were dispensed into each well using a VIAFLO 384 liquid handler, and the plates were shaken for 20 seconds. Plates were incubated for 20 minutes at room temperature, and the luminescence was read as relative luminescent units using an EnVision plate reader.
Dose response curves were generated, and EC50, Ymax, and then area under the curve (AUC) values were calculated. HbF induction was measured using the calculated area under the curve (AUC) value, with higher AUC values indicative of greater HbF induction relative to lower AUC values.

In the next test the target is T2, WIZ (Homo sapiens, UniProt O95785+Q96SW2).
T2 construct: HUDEP-2 cells engineered to express a HiBiT tag in either the WIZ (Widely interspaced zinc finger) or ZBTB7A
T2 sequence (O95785 whole entry): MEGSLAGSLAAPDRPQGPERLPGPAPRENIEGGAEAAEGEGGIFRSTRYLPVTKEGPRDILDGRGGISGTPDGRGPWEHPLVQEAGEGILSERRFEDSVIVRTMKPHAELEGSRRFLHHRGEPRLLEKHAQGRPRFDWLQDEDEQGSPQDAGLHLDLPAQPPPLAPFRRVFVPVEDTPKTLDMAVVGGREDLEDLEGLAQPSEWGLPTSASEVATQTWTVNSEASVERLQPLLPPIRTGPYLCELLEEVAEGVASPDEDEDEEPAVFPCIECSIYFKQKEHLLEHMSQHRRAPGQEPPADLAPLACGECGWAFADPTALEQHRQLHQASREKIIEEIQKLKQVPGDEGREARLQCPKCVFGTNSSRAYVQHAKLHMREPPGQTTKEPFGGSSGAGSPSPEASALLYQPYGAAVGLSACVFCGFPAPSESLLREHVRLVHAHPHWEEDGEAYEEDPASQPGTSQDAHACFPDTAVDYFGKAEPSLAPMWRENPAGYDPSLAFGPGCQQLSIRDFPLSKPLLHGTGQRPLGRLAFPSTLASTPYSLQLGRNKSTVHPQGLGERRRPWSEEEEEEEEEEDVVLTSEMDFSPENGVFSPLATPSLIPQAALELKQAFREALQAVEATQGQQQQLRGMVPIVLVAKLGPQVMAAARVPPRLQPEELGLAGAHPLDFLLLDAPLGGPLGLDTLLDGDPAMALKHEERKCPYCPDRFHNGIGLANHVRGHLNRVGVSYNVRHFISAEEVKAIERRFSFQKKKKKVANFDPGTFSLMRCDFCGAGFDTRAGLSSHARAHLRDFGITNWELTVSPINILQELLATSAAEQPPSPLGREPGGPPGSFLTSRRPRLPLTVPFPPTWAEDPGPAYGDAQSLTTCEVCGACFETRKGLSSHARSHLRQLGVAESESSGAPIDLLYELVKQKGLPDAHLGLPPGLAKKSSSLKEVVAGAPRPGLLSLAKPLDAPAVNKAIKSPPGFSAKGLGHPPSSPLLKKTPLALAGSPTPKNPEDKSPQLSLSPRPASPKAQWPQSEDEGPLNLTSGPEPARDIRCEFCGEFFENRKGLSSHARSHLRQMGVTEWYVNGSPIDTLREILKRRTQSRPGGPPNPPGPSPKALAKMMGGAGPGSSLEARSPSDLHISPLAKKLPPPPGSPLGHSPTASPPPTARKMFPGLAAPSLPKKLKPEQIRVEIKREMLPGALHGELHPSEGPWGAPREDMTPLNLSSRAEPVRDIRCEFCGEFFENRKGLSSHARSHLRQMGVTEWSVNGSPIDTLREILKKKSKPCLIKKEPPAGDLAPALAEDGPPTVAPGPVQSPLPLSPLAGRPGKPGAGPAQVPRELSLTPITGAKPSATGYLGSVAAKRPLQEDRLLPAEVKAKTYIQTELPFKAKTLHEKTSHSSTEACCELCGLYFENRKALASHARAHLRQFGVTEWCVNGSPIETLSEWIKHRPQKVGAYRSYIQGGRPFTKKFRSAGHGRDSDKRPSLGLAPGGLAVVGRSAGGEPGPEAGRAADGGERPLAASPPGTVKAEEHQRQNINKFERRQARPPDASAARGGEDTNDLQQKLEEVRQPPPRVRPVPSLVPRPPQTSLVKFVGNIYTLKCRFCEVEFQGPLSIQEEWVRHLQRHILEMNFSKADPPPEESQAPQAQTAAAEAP
T2 sequence (Q96SW2 whole entry): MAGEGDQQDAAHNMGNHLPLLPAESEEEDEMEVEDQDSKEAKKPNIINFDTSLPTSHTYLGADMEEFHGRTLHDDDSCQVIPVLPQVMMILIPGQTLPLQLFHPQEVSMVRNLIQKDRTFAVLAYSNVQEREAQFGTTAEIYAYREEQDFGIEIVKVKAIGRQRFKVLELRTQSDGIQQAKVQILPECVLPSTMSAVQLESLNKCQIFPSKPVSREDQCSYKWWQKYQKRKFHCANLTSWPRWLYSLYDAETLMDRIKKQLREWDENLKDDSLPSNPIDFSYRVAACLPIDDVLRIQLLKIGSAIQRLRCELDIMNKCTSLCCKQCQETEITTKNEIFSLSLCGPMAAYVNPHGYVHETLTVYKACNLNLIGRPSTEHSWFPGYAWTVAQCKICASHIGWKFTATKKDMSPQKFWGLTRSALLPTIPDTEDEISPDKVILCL
T2 sequence (Q16531 whole entry partner): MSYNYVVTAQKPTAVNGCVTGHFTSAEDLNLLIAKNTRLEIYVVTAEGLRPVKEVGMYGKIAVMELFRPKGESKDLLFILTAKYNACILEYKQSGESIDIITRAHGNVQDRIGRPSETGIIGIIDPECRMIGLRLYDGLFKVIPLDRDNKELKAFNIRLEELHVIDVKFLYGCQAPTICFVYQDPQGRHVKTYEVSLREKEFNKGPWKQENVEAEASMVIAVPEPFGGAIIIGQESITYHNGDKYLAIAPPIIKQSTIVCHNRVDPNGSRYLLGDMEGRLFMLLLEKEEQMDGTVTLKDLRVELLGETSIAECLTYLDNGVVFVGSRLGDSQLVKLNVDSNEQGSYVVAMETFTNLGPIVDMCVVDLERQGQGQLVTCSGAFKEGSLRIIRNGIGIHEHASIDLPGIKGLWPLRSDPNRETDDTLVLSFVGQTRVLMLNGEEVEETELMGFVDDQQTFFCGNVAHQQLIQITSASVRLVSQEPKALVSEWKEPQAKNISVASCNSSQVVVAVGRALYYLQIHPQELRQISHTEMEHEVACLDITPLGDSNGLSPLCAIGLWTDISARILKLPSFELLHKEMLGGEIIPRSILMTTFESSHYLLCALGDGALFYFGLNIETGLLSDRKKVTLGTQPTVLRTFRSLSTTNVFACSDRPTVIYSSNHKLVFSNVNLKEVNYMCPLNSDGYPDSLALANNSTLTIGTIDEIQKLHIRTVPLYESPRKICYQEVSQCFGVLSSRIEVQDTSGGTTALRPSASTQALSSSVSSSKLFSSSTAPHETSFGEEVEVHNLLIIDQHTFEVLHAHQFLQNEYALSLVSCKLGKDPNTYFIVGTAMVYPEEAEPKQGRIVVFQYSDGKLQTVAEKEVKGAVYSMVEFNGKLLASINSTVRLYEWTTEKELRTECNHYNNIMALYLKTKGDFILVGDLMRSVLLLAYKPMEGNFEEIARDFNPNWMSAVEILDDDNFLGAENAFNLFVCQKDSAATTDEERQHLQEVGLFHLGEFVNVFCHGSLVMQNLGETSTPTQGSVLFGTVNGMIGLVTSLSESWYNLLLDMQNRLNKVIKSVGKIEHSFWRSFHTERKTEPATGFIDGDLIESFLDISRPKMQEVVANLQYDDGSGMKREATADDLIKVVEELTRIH
Description: HUDEP-2 WIZ HiBiT degradation assay. Conditions: HiBiT-tagged WIZ degradation in HUDEP-2 cells, 24 hours of treatment; read-out: WIZ EC50. Here is the method: as §1
For the HUDEP-2 WIZ HiBiT assay, cells were transferred to a 50 mL conical and centrifuged at 500 g for five minutes. Cells were resuspended in fresh StemSpan SFEM II media supplemented with Penicillin-Streptomycin (50 U/mL), rhSCF (50 ng/mL), rhEPO (3 IU/mL), dexamethasone (0.4 μg/mL) and doxycycline (1 μg/mL) at a density of 1.0×10^6 cells/ml. Forty microliters of cell suspension was dispensed into 384-well Low Flange White Flat Bottom Polystyrene TC-treated Microplates containing pre-dispensed compounds, using a VIAFLO 384 liquid hander, and placed in a 37° C. incubator with 5% CO2. […] After 24 hours of treatment, 40 μL Nano-Glo HiBiT Lytic Detection System reagent was dispensed into each well using a VIAFLO 384 liquid hander. Plates were incubated for 25 minutes at room temperature and the luminescence was read as relative luminescent units using the EnVision plate reader. EC50 and Y-min values were calculated using curves calculated from dotmatics software after the normalization to the DMSO control of 10 different concentrations: 10, 3.33, 1.11, 0.37, 0.12, 0.04 0.0137, 0.0046, 0.0015 and […] respectively.

The record followed here is US20250333407A1, “Compounds and Their Use for Treatment of Hemoglobinopathies” (Bristol-Myers Squibb Company, priority 2024, published 2025).

T1 sequence (O95365 whole entry): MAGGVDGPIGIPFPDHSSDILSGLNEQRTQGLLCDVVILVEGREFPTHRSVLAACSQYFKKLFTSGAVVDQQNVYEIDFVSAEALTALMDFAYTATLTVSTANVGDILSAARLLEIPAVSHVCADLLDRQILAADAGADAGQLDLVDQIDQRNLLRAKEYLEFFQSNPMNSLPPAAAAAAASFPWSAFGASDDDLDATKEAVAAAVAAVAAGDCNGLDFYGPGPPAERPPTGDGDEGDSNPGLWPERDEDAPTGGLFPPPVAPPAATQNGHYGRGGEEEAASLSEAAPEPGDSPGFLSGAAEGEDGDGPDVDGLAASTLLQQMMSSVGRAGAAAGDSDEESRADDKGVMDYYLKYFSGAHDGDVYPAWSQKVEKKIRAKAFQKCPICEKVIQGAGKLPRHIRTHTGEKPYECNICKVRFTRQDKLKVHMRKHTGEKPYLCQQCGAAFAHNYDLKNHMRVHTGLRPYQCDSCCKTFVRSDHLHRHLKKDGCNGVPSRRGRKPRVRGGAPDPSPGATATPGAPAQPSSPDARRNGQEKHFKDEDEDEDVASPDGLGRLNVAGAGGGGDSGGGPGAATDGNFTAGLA
T1 sequence (Q96SW2 whole entry): as the sequence (Q96SW2 whole entry) above
T1 sequence (Q16531 whole entry partner): as the sequence (Q16531 whole entry partner) above

For the compound `Cc1cc(-c2cc3c(cc2Nc2cccc4c2C(=O)N([C@H]2CCC(=O)NC2=O)C4=O)N(C)C(=O)O[C@H]3C)ccn1` [Compound 22, 4-(((S)-1,4-dimethyl-6-(2-methylpyridin-4-yl)-2-oxo-1,4-dihydro-2H-benzo[d][1,3]oxazin-7-yl)amino)-2-((S)-2,6-dioxopiperidin-3-yl)isoindoline-1,3-dione], the DC50 at ZBTB7A amounted to 13 nM; on WIZ, 17 nM. In addition, in the test with HbF, the “HBF AUC” value is given as “+++ (+++ = AUC ≥ 150)”.
Regarding `Cc1cc(-c2cc3c(cc2Nc2cccc4c2C(=O)N([C@H]2CCC(=O)NC2=O)C4=O)N(C)C(=O)[C@H](C)O3)cc(C)n1` [Compound 23, 4-(((S)-7-(2,6-dimethylpyridin-4-yl)-2,4-dimethyl-3-oxo-3,4-dihydro-2H-benzo[b][1,4]oxazin-6-yl)amino)-2-((S)-2,6-dioxopiperidin-3-yl)isoindoline-1,3-dione], the DC50 amounted to 15 nM on ZBTB7A and 11 nM on WIZ. Further, in the test on HbF, the “HBF AUC” value was “++ (++ = 100 ≤ AUC < 150)”.
Turning to `Cc1cc(-c2cc3c(cc2Nc2cccc4c2C(=O)N([C@H]2CCC(=O)NC2=O)C4=O)N(C)C(=O)[C@@H](C)O3)cc(C)n1` [Compound 24, 4-(((R)-7-(2,6-dimethylpyridin-4-yl)-2,4-dimethyl-3-oxo-3,4-dihydro-2H-benzo[b][1,4]oxazin-6-yl)amino)-2-((S)-2,6-dioxopiperidin-3-yl)isoindoline-1,3-dione], the figures for the DC50 on ZBTB7A and at WIZ were 26 nM and 14 nM, respectively. Besides, in the test on HbF, the “HBF AUC” value is on record as “+++ (+++ = AUC ≥ 150)”.
For the compound `CCN1C(=O)COc2cc(-c3ccnc(C)c3)c(Nc3cccc4c3C(=O)N([C@H]3CCC(=O)NC3=O)C4=O)cc21` [Compound 25, (S)-2-(2,6-dioxopiperidin-3-yl)-4-((4-ethyl-7-(2-methylpyridin-4-yl)-3-oxo-3,4-dihydro-2H-benzo[b][1,4]oxazin-6-yl)amino)isoindoline-1,3-dione], the DC50 came to 24 nM on ZBTB7A and 18 nM on WIZ. The “HBF AUC” value in the test on HbF was “+ (+ = 15 ≤ AUC < 100)”.
The like results for `Cc1cc(-c2cc3c(cc2Nc2cccc4c2C(=O)N([C@H]2CCC(=O)NC2=O)C4=O)N(C2CC2)C(=O)CO3)ccn1` [Compound 26, (S)-4-((4-cyclopropyl-7-(2-methylpyridin-4-yl)-3-oxo-3,4-dihydro-2H-benzo[b][1,4]oxazin-6-yl)amino)-2-(2,6-dioxopiperidin-3-yl)isoindoline-1,3-dione] were, in that order, 98 nM, 13 nM and “++ (++ = 100 ≤ AUC < 150)”.
Regarding `Cc1cc(-c2cc3c(cc2Nc2cccc4c2C(=O)N([C@H]2CCC(=O)NC2=O)C4=O)N(C)C(=O)[C@@H](C)O3)c(F)cn1` [Compound 27, 2-((S)-2,6-dioxopiperidin-3-yl)-4-(((R)-7-(5-fluoro-2-methylpyridin-4-yl)-2,4-dimethyl-3-oxo-3,4-dihydro-2H-benzo[b][1,4]oxazin-6-yl)amino)isoindoline-1,3-dione], the DC50 at ZBTB7A is 11 nM; at WIZ, 6 nM. Further, in the test on HbF, the “HBF AUC” value is “+ (+ = 15 ≤ AUC < 100)”.
For `COc1cc(-c2cc3c(cc2Nc2cccc4c2C(=O)N([C@H]2CCC(=O)NC2=O)C4=O)N(C)C(=O)CO3)c(F)cn1` [Compound 28, (S)-2-(2,6-dioxopiperidin-3-yl)-4-((7-(5-fluoro-2-methoxypyridin-4-yl)-4-methyl-3-oxo-3,4-dihydro-2H-benzo[b][1,4]oxazin-6-yl)amino)isoindoline-1,3-dione], the DC50 at ZBTB7A amounted to 13 nM; on WIZ it was 11 nM. Further, the “HBF AUC” value in the test with HbF is “+++ (+++ = AUC ≥ 150)”.
On to `COc1cc(-c2cc3c(cc2Nc2cccc4c2C(=O)N([C@H]2CCC(=O)NC2=O)C4=O)N(C)C(=O)[C@H](C)O3)c(F)cn1` [Compound 29, 2-((S)-2,6-dioxopiperidin-3-yl)-4-(((S)-7-(5-fluoro-2-methoxypyridin-4-yl)-2,4-dimethyl-3-oxo-3,4-dihydro-2H-benzo[b][1,4]oxazin-6-yl)amino)isoindoline-1,3-dione], for which the DC50 was found to be 23 nM on ZBTB7A and 5 nM on WIZ. Also, the “HBF AUC” value in the test on HbF was “+ (+ = 15 ≤ AUC < 100)”.
In the case of `COc1cc(-c2cc3c(cc2Nc2cccc4c2C(=O)N([C@H]2CCC(=O)NC2=O)C4=O)N(C)C(=O)[C@@H](C)O3)c(F)cn1` [Compound 30, 2-((S)-2,6-dioxopiperidin-3-yl)-4-(((R)-7-(5-fluoro-2-methoxypyridin-4-yl)-2,4-dimethyl-3-oxo-3,4-dihydro-2H-benzo[b][1,4]oxazin-6-yl)amino)isoindoline-1,3-dione], the results for the DC50 at ZBTB7A and at WIZ were 19 nM and 11 nM, respectively. In addition, the “HBF AUC” value in the test with HbF is reported as “++ (++ = 100 ≤ AUC < 150)”.
For `CC(=O)N1CCC(c2cc3c(cc2Nc2cccc4c2C(=O)N([C@H]2CCC(=O)NC2=O)C4=O)N(C)C(=O)[C@H](C)O3)CC1` [Compound 31, 4-(((S)-7-(1-acetylpiperidin-4-yl)-2,4-dimethyl-3-oxo-3,4-dihydro-2H-benzo[b][1,4]oxazin-6-yl)amino)-2-((S)-2,6-dioxopiperidin-3-yl)isoindoline-1,3-dione], in that order: 35 nM, 6 nM and “+++ (+++ = AUC ≥ 150)”.
